The values below come from patent EP0365818A1, “Immunological detection of atrazine and atrazine derivatives” (CIBA-GEIGY AG, priority 1988, dated 1990).

Where only a bound is given, the exact number is not on record here.

Type in all cases: binding, Maus
The test system of assay [1] is MAb 4063-21-1 (ECACC 8808/2501). The assay can be described thus: two-step competitive ELISA (BSA-conjugated hapten on plate), anti-atrazine MAb. The note with it: for % cross-reactivity (b): (Atrazin conc. for 50 % inhibition)/(analogue conc. for 50 % inhibition) x 100; for I 50 ng/ml (a): inhibitor concentration for 50 % inhibition in competitive ELISA. The source says:
(§1) Der prozentuale Anteil der Kreuzreaktivität soll im Rahmen dieser Erfindung definitionsgemäss durch die folgende Beziehung wiedergegeben werden: (Atrazin/Hydroxyatrazinkonzentration für 50 % Hemmung/Konzentration der s-Triazin-/Hydroxytriazinanalogen für 50 % Hemmung) x 100.
(§2) Eine 50 %ige Hemmung kann beispielsweise mit Hilfe eines kompetitiven ELISA Assays (vgl. Beispiel 8) bestimmt werden. Diese entspricht dann beispielsweise derjenigen Antigenkonzentration, die zu einer 50 %igen Hemmung der Antikörperbindung an das Träger-gebundene Antigen führt.
(§3) Der Nachweis von Atrazin und Hydroxyatrazin erfolgt mit Hilfe eines zweistufigen, kompetitiven ELISA-Tests.
(§4) BSA-konjugiertes Hapten wird zunächst in einem Natriumcarbonatpuffer (pH 9,6) (0,2 µg/Vertiefung) an Mikrotiterplatten adsorbiert und über Nacht bei einer Temperatur von 4°C inkubiert. Die restlichen freien Bindungsstellen des festen Trägermaterials werden dann durch Zugabe von BSA in Form einer 1 % Lösung blockiert.
(§5) Die Platten werden anschliessend mit PBS gewaschen, das mit 0,1 % (v/v) Polysorbat 20 angereichert ist (PBS-Tween).
(§6) 50 µl der zuvor gereinigten monoklonalen Antikörper (2 µg/ml) oder aber des Ueberstandes der Zellklone (in einer Verdünnung von 1:5 bis 1:22,5) werden a) mit 950 µl einer Standardlösung, die einen steigenden Anteil an Triazin bzw. Triazin-Analogen enthält, b) mit triazinhaltigen Wasserproben oder c) triazinhaltigen Bodenextrakten inkubiert. (Alle Verdünnungen werden in PBS-Tween vorgenommen).
(§7) Nach einer Inkubationszeit von 1 Stunde bei Raumtemperatur werden 200 µl des Gemisches zu jeder Vertiefung der Mikrotiterplatte zugegeben und der gesamte Ansatz wird für eine weitere Stunde inkubiert.
(§8) Die Vertiefungen werden anschliessend 5 x gewaschen und mit 100 µl/Vertiefung Ziegen-anti-Maus IgG Antikörper der konjugiert an alkalische Phosphatase vorliegt (Verdünnung 1:1500) beschickt und für einen Zeitraum von 1,5 Stunden inkubiert.
(§9) Nach erneutem Waschen werden 150 µl/Vertiefung des in 1 mg/ml Diethanolaminpuffer (1 mM, pH 9,8) gelösten Substrates p-Nitrophenylphosphat zu den Vertiefungen zugegeben.
(§10) Ein Farbumschlag, der proportional ist zur Menge an Antikörper, der mit dem an die Festphase gebundenen Antigen reagiert hat, wird bei einer Wellenlänge von 405 nm aufgezeichnet. Die Verdünnungen der einzelnen Proben werden so gewählt, dass man ohne Zugabe eines Inhibitors (Bo) Absorptionswerte in einem Bereich zwischen 0.3 und 0.5 erhält. Für die Kontrollen (ohne Antikörper und mit nicht nachweisbaren Mengen an Antigen) ergeben sich Werte von R ≦ 0.005. Alle Proben werden in dreifacher Ausfertigung bestimmt.
(§11) Zur Ermittlung der in einer Probe enthaltenen Menge an Atrazin/Hydroxyatrazin wird zunächst eine Eichkurve erstellt (Abb. 1), wobei B/Bo x 100 gegen die Konzentration an Inhibitor aufgetragen wird. (Bo bedeutet Absorptionsfähigkeit gemessen ohne Zugabe eines Triazininhibitors zum Antikörper, und B Absorptionsfähigkeit bei Zugabe verschieden konzentrierter Triazin-Inhibitoren) Der I₅₀-Wert gibt diejenige Konzentration des Antigens an, bei der die Antikörperbindung an die Festphase zu 50 % gehemmt wird. Der I₅₀-Wert wird mit Hilfe eines auf die vorliegenden Verhältnisse speziell angepassten ENZFITTER (Leatherbarrow, Elsevier-Biosoft)Kurvenkalkulationsprogramms bestimmt, basierend auf einer 4 Parameter umfassenden logistischen Kurve (Raab GM, 1983). Auch die quantitative Atrazin bzw. Hydroxyatrazinbestimmung in Boden- oder Wasserproben im Rahmen des ELISA wird mit Hilfe des ENZFITTER-Programms durchgeführt, wobei die Anpassung der Kurve auf Standards basiert, die auf jeder Mikrotiterplatte mitlaufen.
(ELISA stands for enzyme-linked immunosorbent assay.)

Assay [2] relates to MAb 4009-85-3 (ECACC 8808/2503). Nature of the assay: two-step competitive ELISA (BSA-conjugated hapten on plate), anti-hydroxyatrazine MAb. The note with it: for % cross-reactivity (c): (Hydroxyatrazin conc. for 50 % inhibition)/(analogue conc. for 50 % inhibition) x 100; for I 50 ng/ml (a): inhibitor concentration for 50 % inhibition in competitive ELISA.
Excerpt: as §1, §2, §3, §4, §5, §6, §7, §8, §9, §10, §11

The subject of assay [3] is Mab 4009-77-20 (ECACC 8808/2502). The description is as above. The note with it: for % cross-reactivity (c): (Hydroxyatrazin conc. for 50 % inhibition)/(analogue conc. for 50 % inhibition) x 100; for I 50 ng/ml (a): inhibitor concentration for 50 % inhibition in competitive ELISA.
Excerpt: as §1, §2, §3, §4, §5, §6, §7, §8, §9, §10, §11

Take `CCNc1nc(Cl)nc(NCC)n1` [Simazin]: in assay [1], the “% cross-reactivity (b)” value is 2,5% and the “I 50 ng/ml (a)” value was determined as 18 ng/mL.
Consider `CNc1nc(NC(C)C)nc(SC)n1` [Desmetryn], for which, in assay [1], the “% cross-reactivity (b)” value was 0,5% and the “I 50 ng/ml (a)” value was 90 ng/mL.
Turning to `CCNc1nc(NCC)nc(SC)n1` [Simetryn], in assay [1], the “% cross-reactivity (b)” value is 1,7% and the “I 50 ng/ml (a)” value was found to be 27 ng/mL.
For the compound `CCNc1nc(O)nc(NC(C)C)n1` [OH-Atrazin, Hydroxyatrazin], the “% cross-reactivity (c)” value in assay [2] and in assay [3] was 100,0% throughout. The “I 50 ng/ml (a)” value in assay [2] was 0,95 ng/ml; in assay [2] (listed as Hydroxyatrazin) it was 0.95 ng/mL; in assay [3], 0,5 ng/ml; in assay [3] (listed as Hydroxyatrazin), 0.5 ng/mL; in assay [1], 21 ng/mL. The “% cross-reactivity (b)” value in assay [1] was 2,1%.
As for `CCNc1nc(Cl)nc(NC(C)C)n1` [Atrazin], in assay [2], the “% cross-reactivity (c)” value is recorded as <0,1% and the “I 50 ng/ml (a)” value is over 1000 ng/mL. Besides, in assay [3], the “% cross-reactivity (c)” value is reported as <0,05% and the “I 50 ng/ml (a)” value was over 1000 ng/mL. Also, in assay [1], the “% cross-reactivity (b)” value is reported as 100,0%.
`CCNc1nc(Cl)nc(NC(C)(C)C)n1` [Terbuthylazin]: in assay [1], the “% cross-reactivity (b)” value is reported as 5,0% and the “I 50 ng/ml (a)” value is 9 ng/mL.
With `CCNc1nc(O)nc(NC(C)(C)C)n1` [OH-Terbuthylazin, Hydroxyterbuthylazin], the “% cross-reactivity (c)” value was 5,0% in assay [2] and 15,2% in assay [3]. For the same compound, the “I 50 ng/ml (a)” value in assay [2] is 19 ng/mL; in assay [3], 3,3 ng/ml; in assay [1], 8 ng/mL. The “% cross-reactivity (b)” value in assay [1] was 5,6%.
Consider `CCNc1nc(NC(C)C)nc(OC)n1` [Atraton], for which, in assay [2], the “% cross-reactivity (c)” value is on record as <0,1% and the “I 50 ng/ml (a)” value was over 1000 ng/mL. Moreover, in assay [3], the “% cross-reactivity (c)” value was <0,05% and the “I 50 ng/ml (a)” value was over 1000 ng/mL. For the same compound, in assay [1], the “% cross-reactivity (b)” value was 6,4% and the “I 50 ng/ml (a)” value was 7 ng/mL.
As to `COc1nc(NC(C)C)nc(NC(C)C)n1` [Prometon], in assay [1], the “% cross-reactivity (b)” value was 75,0% and the “I 50 ng/ml (a)” value is 0,6 ng/ml.
`CCNc1nc(NC(C)C)nc(SC)n1` [Ametryn]: the “% cross-reactivity (c)” value is recorded as <0,1% in assay [2] and <0,05% in assay [3]. The figures for the “I 50 ng/ml (a)” value in assay [2], in assay [3] and in assay [1] were over 1000 ng/mL, over 1000 ng/mL and 9 ng/mL, respectively. In addition, in assay [1], the “% cross-reactivity (b)” value is listed as 5,0%.
As to `CC(C)Nc1nc(Cl)nc(NC(C)C)n1` [Propazin], in assay [2], the “% cross-reactivity (c)” value is <0,1% and the “I 50 ng/ml (a)” value is over 1000 ng/mL. Further, in assay [3], the “% cross-reactivity (c)” value is listed as <0,05% and the “I 50 ng/ml (a)” value was over 1000 ng/mL. Besides, in assay [1], the “% cross-reactivity (b)” value was 90,0% and the “I 50 ng/ml (a)” value is given as 0,5 ng/ml.
Regarding `CSc1nc(NC(C)C)nc(NC(C)C)n1` [Prometryn], in assay [1], the “% cross-reactivity (b)” value is reported as 56,3% and the “I 50 ng/ml (a)” value was 0,8 ng/ml.
For `CCNc1nc(Cl)nc(N(CC)CC)n1` [Trietazin] the same measures were 11,3% and 4 ng/mL.
On to `CCNc1nc(O)nc(NCC)n1` [OH-Simazin, Hydroxysimazin], for which, in assay [2], the “% cross-reactivity (c)” value was 1,5% and the “I 50 ng/ml (a)” value came to 65 ng/mL. Further, in assay [3], the “% cross-reactivity (c)” value is given as 41,7% and the “I 50 ng/ml (a)” value was 1,2 ng/ml. For the same compound, in assay [1], the “% cross-reactivity (b)” value is listed as 0,3% and the “I 50 ng/ml (a)” value was found to be 180 ng/mL.
As to `CNc1nc(O)nc(NC(C)C)n1` [OH-Desmetryn, Hydroxydesmetryn], in assay [2], the “% cross-reactivity (c)” value is recorded as 11,9% and the “I 50 ng/ml (a)” value worked out at 8 ng/mL. Also, in assay [3], the “% cross-reactivity (c)” value is given as 71,4% and the “I 50 ng/ml (a)” value is listed as 0,7 ng/ml. In assay [1], the “% cross-reactivity (b)” value is 0,1% and the “I 50 ng/ml (a)” value is 360 ng/mL.
As to `CC(C)Nc1nc(O)nc(NC(C)C)n1` [OH-Propazin, Hydroxypropazin], in assay [2], the “% cross-reactivity (c)” value is on record as 100,0% and the “I 50 ng/ml (a)” value is on record as 0,95 ng/ml. In assay [3], the “% cross-reactivity (c)” value is on record as 83,3% and the “I 50 ng/ml (a)” value is recorded as 0,6 ng/ml. Further, in assay [1], the “% cross-reactivity (b)” value was 8,2% and the “I 50 ng/ml (a)” value is given as 5,5 ng/ml.
